Test results published in US10542989B2, “Synergistic dietary supplement compositions for enhancing physical performance and energy levels” (LAILA NUTRACEUTICALS, priority 2015, dated 2020).

Legend:
Swiss albino mice [1] = experiment: Energy and endurance forced swim test (FST) with constant load; type: in vivo; conditions: for Activity during forced swimming compared to control group (in words): 10 minutes of forced swimming, day 21; for Average Velocity / Distance Travelled (mm) / Fast Swimming Time / Resting Time / Slow Swimming: oral, 21 days, 150 mg/kg (Caffeine 10 mg/kg), 10 min swim on day 21, Mean ± SEM
Description: The efficacy of the compositions LI12522F2, LI89032F3 and LI80020F3 for enhancing energy and endurance was further evaluated in an animal study. […] On day 21, one hour after the treatment the mice were forced to swim with a constant load (10% of its body weight attached to its tail) in an acrylic cylinder filled with water. This test was monitored for 10 minutes using the SMART video tracking system ([…]). Various swimming parameters were recorded and analyzed by smart software. […] Swiss albino mice were acclimatized for 5 days before initiation of the study. Healthy Swiss albino mice were selected and randomly divided (n=6) into different treatment groups. […] On day 21, one hour after the treatment the mice were forced to swim with a constant load (10% of its body weight attached to its tail) in an acrylic cylinder filled with water. This test was monitored for 10 minutes using the SMART video tracking system ([…]). Various swimming parameters were recorded and analyzed by smart software. Measured Swimming parameters include, resting time, slow moving time, fast moving time, total moving time, path length of swimming and average velocity.

Swiss albino mice [2] = experiment: Grip strength measurement (grip strength meter); type: in vivo; conditions: oral, 150 mg/kg (Caffeine 10 mg/kg), Mean ± SEM
Description: Similarly, after 21 days of treatment, the grip strength of mice was measured by using Grip strength meter (UgoBasile, Italy). Animals were trained and habituated to the experimental environment and conditions for 5 days. Each mice was allowed to grasp the grasping bar and it was pulled back gently in a horizontal plane by tail with gradually increasing force till the pulling force overcomes the grip strength of the animal. The force applied at the moment when the mice leaves its grasp on the grasping bar was recorded as grip strength in grams.
After 21 days of treatment Grip strength of mice was measured by using Grip strength meter (UgoBasile, Italy). Animals were trained and habituated to the experimental environment and conditions for 5 days. Each mice was allowed to grasp the grasping bar and it was pulled back gently in a horizontal plane by tail with gradually increasing force till the pulling force overcomes the grip strength of the animal. The force applied at the moment when the mice leaves its grasp on the grasping bar was recorded as grip strength in grams. Three trials were conducted on each animal and average grip strength was calculated.

Structure (SMILES) | Activity during forced swimming compared to control group (in words) (Swiss albino mice [1]) | Average Velocity (Swiss albino mice [1]) | Distance Travelled (mm) (Swiss albino mice [1]) | Fast Swimming Time (Swiss albino mice [1]) [s] | Resting Time (Swiss albino mice [1]) [s] | Slow Swimming (Swiss albino mice [1]) [s] | Average Grip Strength measured after 21 Days (Swiss albino mice [2]) [grams]
C[N+](C)(C)C[C@H](O)CC(=O)[O-] [L-Carnitine] | more active and energetic | 44.24 | 26197.58 | 67.64 | 419.52 | 104.92 | 39.20 ± 7.51
Cn1c(=O)c2c(ncn2C)n(C)c1=O [Caffeine] | more active and energetic | 49.80 | 28740.25 | 82.16 | 399.64 | 92.12 | 56.07 ± 10.37
